Experimental data as given in the NIST ThermoML archive (doi:10.1016/j.fluid.2015.04.021).
± gives the expanded uncertainty stated by the source.

Tests used:
[1] = Liquid; for viscosity: Falling or rolling sphere viscometry; for mass density: Vibrating tube method
[2] = cn = amount concentration of the nth substance listed, in mol/dm3; settings: 101.3 kPa, Liquid, Falling or rolling sphere viscometry, c2 = 0

NCCO [2-aminoethan-1-ol]
[1], 101.33 kPa
Settings	mass density [kg/m3]	viscosity [mPa·s]
303.15 K	1007.7 ± 8	14.61 ± 2.3
313.15 K	999.8 ± 8	9.724 ± 1.6
323.15 K	991.7 ± 8	6.807 ± 1.1
333.15 K	983.7 ± 8	4.97 ± 0.8
343.15 K	975.5 ± 8	3.784 ± 0.61

O [water]
[1], 101.3 kPa
Settings	viscosity [mPa·s]
293.15 K	1.002 ± 0.16
298.15 K	0.8908 ± 0.14
303.15 K	0.799 ± 0.13
308.15 K	0.722 ± 0.12
313.15 K	0.6564 ± 0.11
318.15 K	0.6009 ± 0.096

O [water] + NCCCC[C@H](N)C(=O)[O-].[K+]
[2]
Settings	viscosity [mPa·s]
298.15 K	0.8908 ± 0.14
303.15 K	0.799 ± 0.13
308.15 K	0.722 ± 0.12
313.15 K	0.6564 ± 0.11
318.15 K	0.6009 ± 0.096

O [water] + O=C([O-])[C@@H]1CCCN1.[K+]
[2]
Settings	viscosity [mPa·s]
298.15 K	0.8908 ± 0.14
303.15 K	0.799 ± 0.13
308.15 K	0.722 ± 0.12
313.15 K	0.6564 ± 0.11
318.15 K	0.6009 ± 0.096
